Measured values reported in a melting point compilation (Tetko et al.; mined from patent text by program, amines drawn as free bases though some values may be those of a salt).

First: C/C(=N\OC(=O)c1ccc(CNC(=O)OC(C)(C)C)cc1)[C@H]1CC[C@H]2[C@@H]3CCC4=CC(=O)CC[C@]4(C)[C@H]3CC[C@]12C
Second: CC(C)(C)OC(=O)N[C@@H]1C(=O)N(OCc2ccccc2)C1(C)C
The melting point of the first is higher: 166 to 168 °C for the first, 121 to 122 °C for the second.

First: Cn1cncc1C(O)(c1ccc(C#N)cc1)c1ccc2c(c1)c(-c1cccc(Cl)c1)cc(=O)n2C (stereo not given)
Second: CC(C)n1nc(-c2sc(NC(=O)c3cccc(Cl)c3)nc2-c2ccccc2)ccc1=O
The melting point of the first is higher: 210 °C for the first, 173 to 174 °C for the second.

First: Cc1cc(O)c(C)c(C)c1OC(=O)C(C)(C)C
Second: CCOC(=O)c1cnc2sc(C)cc2c1O
The melting point of the first is lower: 88 to 112 °C for the first, 118 to 120 °C for the second.

Compared with O=c1cc(O)cc(-c2cccc(Cl)c2)o1, O=C1Nc2ccc(Cl)cc2C1(O)c1cccc2c1OCO2 (stereo not given) is higher in melting point: 254 to 256 °C for the first, 271 °C for the second.

First: CC(C)(C)N1CCN(c2cc3c(cc2F)c(=O)c(C(=O)O)cn3C2CC2)CC1
Second: CCNCC1CCN(c2c(F)cc3c(=O)c(C(=O)O)cn(CC)c3c2F)C1 (stereo not given)
The melting point of the first is higher: 257 to 260 °C for the first, 208 to 210 °C for the second.

First: COC(=O)c1ccc(C(=O)O)cc1C(=O)OC
Second: COC(=O)c1ccc(C(=O)CCCOC(C)=O)cc1
The melting point of the first is higher: 168 to 169 °C for the first, 61 to 62 °C for the second.

Compared with Cc1oncc1-c1ccc(OC2SCC(O)C(O)C2O)cn1 (stereo not given), OCC1OC(Oc2ccsc2Cc2ccc(OC(F)(F)F)cc2)C(O)C(O)C1O (stereo not given) is lower in melting point: 184 °C for the first, 144 to 145 °C for the second.

Compared with NC(=O)CCc1ccc(F)cc1F, CC(C)Cc1ccc2scc(C(C)N(O)C(N)=O)c2c1 (stereo not given) is higher in melting point: 107 to 108 °C for the first, 151 to 153 °C for the second.

First: Cc1nc(-c2ccc(C(F)(F)F)cc2)sc1CCOc1ccc(CC(=O)O)cc1
Second: CCOC(=O)C(=O)c1cn(Cc2ccc(C(C)(C)C)cc2)c2cc(-c3ccc(C(F)(F)F)cc3)ccc12
The melting point of the first is lower: 128 to 130 °C for the first, 164 to 165 °C for the second.

Compared with NC(=S)c1ccc(Br)cc1, COc1ccc2cc(Br)ccc2c1[N+](=O)[O-] is higher in melting point: 142 to 144 °C for the first, 151 to 152 °C for the second.

Compared with O=S1(=O)CCN2C=C(F)C=C(c3ccc(Oc4ccccc4)cc3)C2=N1, O=C(O)c1cccc2c(=O)cc(-c3ccc(OCc4ccccc4)cc3)oc12 is higher in melting point: 91.9 to 92 °C for the first, 145 to 147 °C for the second.

First: CNC(=O)Nc1ccc2c(c1Cl)C(c1ccccc1F)=NCC(=O)N2C
Second: CN1C(=O)c2cccnc2N(CCO)c2ccccc21
The melting point of the first is higher: 145 to 160 °C for the first, 133 to 134 °C for the second.

First: NS(=O)(=O)c1ccccc1OC(F)(F)C(F)(F)F
Second: NC(=O)NC1CCC(c2ccccc2-n2nc(C(F)(F)F)cc2C(F)(F)F)CC1 (stereo not given)
The melting point of the first is lower: 145 to 146 °C for the first, 185 to 188 °C for the second.

Compared with CN1CCC(c2c[nH]c3ccc(C(=O)c4ccccc4)cc23)CC1, Cc1nc2sccn2c(=O)c1CCN1CCC(n2ccc3ccccc32)CC1 is higher in melting point: 101 °C for the first, 134 °C for the second.

First: CC(C)(Oc1ccc(CC(=O)Nc2ccccc2)cc1)C(=O)O
Second: CC(C)(C)c1cc(NC(=O)Nc2ccc(Oc3cccc(NC(=O)OCc4ccccc4)c3)cc2)no1
The melting point of the first is higher: 198 °C for the first, 73 to 75 °C for the second.

First: CCCCCCCCCCCCCCCc1cccc(OCC(=O)O)c1
Second: CCCCCCCCCCCCc1ccc(CO)cc1
The melting point of the first is higher: 96 °C for the first, 44 to 45 °C for the second.

Compared with COc1ccc2c(ccc3c4ccc(OC)cc4c(=O)n(-c4ccc(OCCN5CCCCC5)cc4)c23)c1, COc1ccc(-c2ccccc2)cc1N1CCN(C(=O)Nc2cc3ccccc3nc2OC)CC1 is lower in melting point: 176 °C for the first, 122 to 123 °C for the second.

Compared with CCOc1ccc(NS(=O)(=O)c2ccc(NN=CCCCN3C(=O)c4ccccc4C3=O)cc2)cc1, CCOc1ccccc1C(=O)Nc1ccc(C(=O)N2Cc3cccn3Cc3ccccc32)cc1 is higher in melting point: 156 to 158 °C for the first, 160 to 176 °C for the second.

First: CC12CCC(O)C(O)C1=CCC1C2CCC2(C)C(O)C(O)CC12 (stereo not given)
Second: COC(=O)N1CC(C(N)=O)C(c2ccc(OC)c(OC3CCCC3)c2)C1 (stereo not given)
The melting point of the first is higher: 238 to 241 °C for the first, 130 to 132 °C for the second.

First: O=C(Oc1ccccc1N1c2ccccc2S(=O)(=O)c2ccccc21)c1ccccc1
Second: CC(C)CCNS(=O)(=O)c1cc(C(=O)NC2CCc3ccccc32)ccc1Oc1ccccc1 (stereo not given)
The melting point of the first is higher: 228 to 232 °C for the first, 73 °C for the second.

First: COC(=O)c1ccc2c(c1)SC(c1ccccc1)C(c1ccc3c(c1)NC(=O)CO3)=C2 (stereo not given)
Second: CC(C)n1nc(-c2sc(C(=O)NCc3ccccn3)nc2-c2cccc(F)c2)ccc1=O
The melting point of the first is higher: 217 to 219 °C for the first, 188 to 190 °C for the second.

First: CC(C)(C)c1ccc(/C=C/C(=O)Nc2ccc3ncoc3c2)cc1
Second: COc1ccc(C=CC(=O)Nc2cccc(C(=O)O)c2)cc1OC
The melting point of the first is lower: 147 to 148 °C for the first, 225 to 226 °C for the second.

First: COc1c(O)c(C)c(CN2CCN(C(=S)SC)CC2)c(O)c1OC
Second: COc1ccc2c(C)c(CCCl)c(=O)oc2c1OC
The melting point of the first is lower: 135 to 136 °C for the first, 137 to 139 °C for the second.

Compared with CC[C@H](Cn1cnnn1)n1cnc2cc3c(=O)n([C@H](CC)Cn4cnnn4)nnc3cc2c1=O, CCCCCCc1cn(C)cc(-c2cccc(C(F)(F)F)c2)c1=O is higher in melting point: 80 to 81 °C for the first, 89.5 to 90.5 °C for the second.

First: N#Cc1nc(Cl)ccc1[N+](=O)[O-]
Second: N#Cc1cccc2c1OCCN2
The melting point of the first is higher: 115 to 117 °C for the first, 79 to 80 °C for the second.

Compared with CC(C)c1ccc(NC(=O)OC(C)(C)C)c(C(=O)NCC2CCN(C(c3ccccc3)c3ccccc3)CC2)c1, CC(C)C(=O)N1CCC(CNc2ccc(Cl)cc2C(=O)Nc2ccc(Cl)cn2)CC1 is higher in melting point: 88 to 90 °C for the first, 99 to 101 °C for the second.

Compared with O=c1[nH]c2c(o1)-c1ccncc1CC2, Cc1nc2cnccc2o1 is lower in melting point: 290 to 292 °C for the first, 56 to 58 °C for the second.

First: Cc1csc(C)c1CO
Second: CCCCCCCCCCc1c(C)nc2ccccn2c1=O
The melting point of the first is higher: 80 to 81 °C for the first, 66 to 67.5 °C for the second.

First: Cc1cccc(Nn2c(-c3ccccc3)c(C)[nH]c2=S)c1
Second: Cc1oc(-c2ccccc2)nc1Cc1cc2cc(N)ccc2o1
The melting point of the first is higher: 206 °C for the first, 162 °C for the second.

Compared with COc1ccc(C(=O)N2CC[C@@H](O)C2=O)cc1O, CCOC(=O)c1ccc(OCc2ccccc2)c(OC)c1 is lower in melting point: 129 to 131 °C for the first, 72 to 74 °C for the second.

First: O=C1Cc2cc(F)c(Cl)cc2N1
Second: Fc1cc2c(c(-c3c(Cl)cccc3Cl)c1)OC(CNC1CC1)C2 (stereo not given)
The melting point of the first is higher: 196 to 206 °C for the first, 112 to 113 °C for the second.

First: CCOC(=O)/C=C/c1cc(Br)ccc1N(C)Cc1cnn(C)c1
Second: CCCNCc1cccc(OCCCNc2nc(N)nn2C)c1
The melting point of the first is lower: 67 to 68 °C for the first, 79 to 81 °C for the second.

First: CNC(=O)c1cccc(C)c1Nc1nc(Nc2ccc3c(c2)N(CCOC)C(=O)CCC3)ncc1Cl
Second: O=C(Nc1ccc(C(=O)N2CCCc3cc(F)ccc32)cc1)c1cc(Cl)cc(Cl)c1
The melting point of the first is lower: 185 to 187 °C for the first, 206 °C for the second.

First: CS(=O)(=O)c1ccc(Cl)c(-c2n[nH]c3nc(Oc4ccc(F)cc4F)ncc23)c1
Second: Cc1ccc(-n2nc(C(F)F)cc2-c2ccc(S(C)(=O)=O)cc2)cc1F
The melting point of the first is higher: 252 °C for the first, 161 to 162 °C for the second.

Compared with Cc1cc(N)ccc1Oc1ccc(Oc2ccc(N)cc2C)cc1, COc1cc([N+](=O)[O-])c2nc(OCc3ccc(Cl)cc3)ccc2c1 is lower in melting point: 195 to 196 °C for the first, 130 to 134 °C for the second.

COc1ccc(C(O)CNC(C)CCc2ccccc2)cc1C(N)=O (stereo not given) and C[C@H](NC(=O)CCCCc1ccccc1)C(=O)N[C@H](CCC(=O)O)C(=O)O cannot be ordered by melting point: 110 to 148 °C for the first, 135 to 140 °C for the second.

Compared with C=C(C)C(C(=O)OCC(Cl)(Cl)Cl)N1C(=O)C(NC(=O)Cc2ccccc2)C1SSc1nc2ccccc2s1 (stereo not given), CC(C)CC(NC(=O)C1CCCCC1NC(=O)OCc1ccccc1)C(N)=O (stereo not given) is higher in melting point: 133 to 134 °C for the first, 188 to 190 °C for the second.

First: Cc1c(C(=O)Nc2ccc(N3CCN(C4CCOCC4)CC3)c(C#N)c2)cnn1-c1ccc(F)cc1
Second: CCOC(=O)C1=C(C)Nc2nc(N3CCOCC3)nc(N3CCOCC3)c2C1c1ccccn1 (stereo not given)
The melting point of the first is higher: 240 °C for the first, 226 °C for the second.

First: Cc1ccc(Nc2nc(-c3cccc(C#N)c3)cs2)nc1
Second: c1csc(CNc2nccc3ccccc23)c1
The melting point of the first is higher: 268 to 272 °C for the first, 86.5 to 87.5 °C for the second.

First: CC(O)=C(C#N)C(=O)Nc1ccc(C(F)(F)F)cc1
Second: CC(C)(C)OC(=O)NNC(=S)Nc1ccc(F)cc1
The melting point of the first is higher: 230 to 233 °C for the first, 158 to 160 °C for the second.

First: CC(CC1CCOCC1)(c1ccc(S(C)(=O)=O)cn1)c1ccc(-c2ccccn2)[nH]1 (stereo not given)
Second: O=C1CC(=CN2CCOCC2)Oc2c(OCc3ccccc3)cccc21
The melting point of the first is higher: 135 to 136 °C for the first, 107 to 108 °C for the second.

Compared with Cc1c(C(=O)O)cnn1-c1c(Cl)cc(C(F)(F)F)cc1Cl, CC(C)(C(=O)O)S(=O)c1ccc2c(-c3ccc(Cl)cc3)noc2c1 (stereo not given) is lower in melting point: 187 to 189 °C for the first, 184 to 185 °C for the second.

Compared with COc1cc(N)c(Cl)cc1C(=O)NC1CCN(CC2CCN(C(C)C(C)=O)CC2)CC1 (stereo not given), Cc1nc(N2CCN(CC3CC3)C2=O)sc1C(N)=O is lower in melting point: 268 to 270 °C for the first, 198 to 200 °C for the second.

Compared with CC(C)c1nc2ccc(C=O)cc2nc1C(C)C, CN(C)C(=O)C1CN(C)c2nc3cc(F)c(F)cc3cc2C1=O (stereo not given) is higher in melting point: 53 to 55 °C for the first, 206 °C for the second.

Compared with O=C1C(CBr)=C(CBr)C(=O)C(CBr)=C1CBr, CC(=O)Nc1ccc2c(c1)[nH]c(=O)c(=O)n2CP(=O)(O)O is lower in melting point: 169 to 172 °C for the first, 120 °C for the second.

Compared with CN(C)Cc1ccc(Cc2cnc(N[N+](=O)[O-])[nH]c2=O)cn1, CC[C@H](C)[C@H](OCc1cccc(F)c1F)[C@H]1[C@H]([N+](=O)[O-])[C@H](c2ccccc2)N[C@@H]1C(=O)NCC(=O)O is lower in melting point: 234 to 238 °C for the first, 137 to 138 °C for the second.

First: O=c1c2cc3ccccc3cc2nc(CSc2ncnc3[nH]cnc23)n1-c1ccccc1Cl
Second: CCOc1cc(OCc2cccc(OCc3nc(-c4ccccc4)oc3C)c2)ccc1CCC(=O)O
The melting point of the first is higher: 248 to 254 °C for the first, 122 to 123 °C for the second.

First: COc1cc(C(C#N)CCC(C#N)c2cc(OC)c(OC)c(OC)c2)cc(OC)c1OC (stereo not given)
Second: CC(=O)Nc1ncc(SCC(=O)OC(C)(C)C)s1
The melting point of the first is higher: 173 to 174 °C for the first, 162 to 163 °C for the second.

First: O=C(CN1C(=O)CC1S(=O)c1ccccc1)NCCCCCCc1ccc(Cl)cc1 (stereo not given)
Second: O=C(O)Cc1ccc(N(C(=O)C(COC2CCCCO2)NS(=O)(=O)c2ccc3ccccc3c2)c2ccc(CC(=O)O)cc2)cc1 (racemic)
The melting point of the first is lower: 113 to 115 °C for the first, 130 to 140 °C for the second.

First: N#Cc1ccc(C(=O)NC(=S)NC2CCCCC2)cc1
Second: CCCCCCCCCCCCCCCCCCOC(=O)P(=O)(OC)OC
The melting point of the first is higher: 136 to 137 °C for the first, 41 to 42 °C for the second.
